From US6521211B1, “Methods of imaging and treatment with targeted compositions” (Bristol-Myers Squibb Medical Imaging, Inc., priority 1995, dated 2003)

System: β-galactosidase gene (pSV β-gal)
Test: in vivo delivery of genetic material in rats, X-gal staining, with or without ultrasound
Design: species or system Sprague Dawley rats
Details: mixed with plasmid pSV β-gal, tail vein, 48 hours
Method: Plasmid pSV β-gal (Promega, Madison, Wiss.), which contains the β-galactosidase gene, and the cationic lipid compound prepared in Example 3 were combined by mixing. The resulting mixture was injected into each of three Sprague Dawley rats (rats (A), (B) and (C)) via the tail vein. Rat (A) was not subjected to ultrasound. Ultrasonic energy was applied to the inside of the hind leg during injection for each of rats (B) and (C). After 48 hours, the rats were euthanized and the tissues were removed. The tissues were fixed for 72 hours in 2% formalin, sliced thin and placed in an X-gal solution. After 16 hours at 37° C., the tissues were inspected.

## CCCCCCCCCCCCCCCCOC(=O)CN(CC[N+](C)(CC(=O)NCC[N+](C)(C)C)CC(=O)OCCCCCCCCCCCCCCCC)CC(=O)O (stereo not drawn) [Example 3, N,N′-bis (hexadecyloxycarbonylmethylene)-N-(β-N,N,N-trimethylammoniumethyl-aminocarbonylmethylene) -N-methyl-N′-(carboxymethylene)ethylenediamine diiodide]
Rat (A), no ultrasound
  X-gal staining of tissue (transfection): blue color which is indicative of general transfection
Rats (B) and (C), ultrasonic energy to inside of hind leg during injection
  X-gal staining of tissue (transfection): blue color only at the site where ultrasound energy was applied
